Among the data in ChEMBL document CHEMBL5260814, “Design strategies in the prodrugs of HIV-1 protease inhibitors to improve the pharmaceutical properties” (Eur J Med Chem, 2017) are IC50, inhibition and half-life values, retold here.

pIC50: −log10 of the molar value. Some results are limits rather than exact numbers.

Series [1] concerns the target T1, Peptidyl-prolyl cis-trans isomerase FKBP1A (Homo sapiens, UniProt P62942). The series is described as follows: Inhibition of FKBP12 (unknown origin).
Series [2] addresses T1, Peptidyl-prolyl cis-trans isomerase FKBP1A. The series is described as follows: Inhibition of FKBP12 (unknown origin) measured for 6 hrs relative to control. The following applies: concentration not given here.
The nature of series [3]: Half life in mouse plasma at 10 mg/kg, ip measured after 12 hrs. The class given is ADME, organism-based.
The target of series [4] is Human immunodeficiency virus type 1 protease (Human immunodeficiency virus 1, UniProt Q72874). Description: Inhibition of HIV-1 protease by FRET-based assay.
Series [5] can be described thus: Half life in mouse plasma at 10 mg/kg, ip measured after 3 hrs. Format: ADME, organism-based.

T1 sequence (P62942 whole entry): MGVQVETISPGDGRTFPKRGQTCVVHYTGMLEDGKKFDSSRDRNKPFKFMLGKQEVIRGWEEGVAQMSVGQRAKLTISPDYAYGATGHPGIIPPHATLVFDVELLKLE

`CCC(C)(C)C(=O)C(=O)N1CCCCC1C(=O)OC(CCc1ccc(OC)c(OC)c1)c1cccc(NC(=O)CCC(=O)N[C@@H](Cc2ccccc2)[C@H](O)CN(CC(C)C)S(=O)(=O)c2ccc(OC)cc2)c1` (some centres not stated): the pIC50 in series [1] is 7.93; in series [4], 8.01. For the same compound, in series [2], the inhibition worked out at 100%. In series [3], this compound registered a half-life of over 540 min.

Regarding `COc1ccc(S(=O)(=O)N(CC(C)C)C[C@@H](O)[C@H](Cc2ccccc2)NC(=O)O[C@H]2CCOC2)cc1`, in series [2], the inhibition was 100%. The half-life in series [5] stood at 30 min. Besides, the pIC50 in series [4] was 8.38.
